Source: the NIST ThermoML archive (doi:10.1016/j.jct.2015.09.022)

Test: xn = mol fraction of the nth substance listed
Settings: 100.7 kPa, Liquid; for viscosity: Falling or rolling sphere viscometry; for speed of sound: Frequency=3 MHz, Sing-around technique in a fixed-path interferometer; for mass density: Vibrating tube method

CCCC[n+]1ccn(C)c1.O=S(=O)([N-]S(=O)(=O)C(F)(F)F)C(F)(F)F + CCCCOC(C)=O
Settings	mass density [kg/m3]	speed of sound [m/s]	viscosity [mPa·s]
298.15 K, x1 = 0.0252	–	1187.2	–
298.15 K, x1 = 0.0521	–	1185.1	–
298.15 K, x1 = 0.0754	–	1183.4	–
298.15 K, x1 = 0.11	1002.7	1182	1.65
298.15 K, x1 = 0.2089	1091.17	1182.3	3.16
298.15 K, x1 = 0.2993	1157.05	1184.9	5.48
298.15 K, x1 = 0.393	1214.08	1189	8.7
298.15 K, x1 = 0.4847	1261.35	1194	13
298.15 K, x1 = 0.5739	1300.9	1199.2	18.01
298.15 K, x1 = 0.687	1344.53	1206.6	25.24
298.15 K, x1 = 0.7791	1375.41	1212.7	31.73
298.15 K, x1 = 0.9056	1412.56	1221.6	41.39
298.15 K, x1 = 1	1436.82	1227.8	50.04
303.15 K, x1 = 0.0252	–	1167.5	–
303.15 K, x1 = 0.0521	–	1165.2	–
303.15 K, x1 = 0.0754	–	1164.2	–
303.15 K, x1 = 0.11	997.7	1163.8	1.32
303.15 K, x1 = 0.2089	1086.13	1165.8	2.47
303.15 K, x1 = 0.2993	1152.05	1169.6	4.19
303.15 K, x1 = 0.393	1209.12	1174.7	6.7
303.15 K, x1 = 0.4847	1256.55	1180.5	10
303.15 K, x1 = 0.5739	1296	1186.3	13.81
303.15 K, x1 = 0.687	1339.68	1194.3	19.35
303.15 K, x1 = 0.7791	1370.57	1201.8	25.04
303.15 K, x1 = 0.9056	1407.82	1211.6	33.3
303.15 K, x1 = 1	1431.98	1217.5	40.72
308.15 K, x1 = 0.0252	–	1147.2	–
308.15 K, x1 = 0.0521	–	1146.7	–
308.15 K, x1 = 0.0754	–	1146.3	–
308.15 K, x1 = 0.11	992.65	1145.8	1.08
308.15 K, x1 = 0.2089	1081.08	1149.4	2
308.15 K, x1 = 0.2993	1147.06	1154.5	3.3
308.15 K, x1 = 0.393	1204.12	1160.6	5.35
308.15 K, x1 = 0.4847	1251.44	1167.2	7.85
308.15 K, x1 = 0.5739	1291.12	1173.6	10.8
308.15 K, x1 = 0.687	1335.03	1182.2	15.26
308.15 K, x1 = 0.7791	1365.95	1189.1	20
308.15 K, x1 = 0.9056	1403.1	1199.2	27.56
308.15 K, x1 = 1	1427.16	1205.2	33.73
313.15 K, x1 = 0.0252	–	1128.5	–
313.15 K, x1 = 0.0521	–	1127	–
313.15 K, x1 = 0.0754	–	1127.2	–
313.15 K, x1 = 0.11	987.68	1127.8	0.96
313.15 K, x1 = 0.2089	1076.25	1133.2	1.72
313.15 K, x1 = 0.2993	1142.16	1139.5	2.81
313.15 K, x1 = 0.393	1199.24	1146.2	4.65
313.15 K, x1 = 0.4847	1246.74	1153.9	6.64
313.15 K, x1 = 0.5739	1286.33	1161	8.59
313.15 K, x1 = 0.687	1330.2	1170.2	12.16
313.15 K, x1 = 0.7791	1361.33	1178.5	15.96
313.15 K, x1 = 0.9056	1398.49	1188.4	22.61
313.15 K, x1 = 1	1422.37	1194.4	28.28
318.15 K, x1 = 0.0252	–	1108.2	–
318.15 K, x1 = 0.0521	–	1109.2	–
318.15 K, x1 = 0.0754	–	1109.6	–
318.15 K, x1 = 0.11	982.52	1110	0.8
318.15 K, x1 = 0.2089	1071.24	1117.1	1.49
318.15 K, x1 = 0.2993	1137.09	1124.6	2.35
318.15 K, x1 = 0.393	1194.31	1132	3.96
318.15 K, x1 = 0.4847	1241.85	1140.8	5.5
318.15 K, x1 = 0.5739	1281.71	1148.4	6.92
318.15 K, x1 = 0.687	1325.49	1159.3	9.96
318.15 K, x1 = 0.7791	1356.79	1168	13.17
318.15 K, x1 = 0.9056	1393.84	1178.5	18.87
318.15 K, x1 = 1	1417.6	1184.5	24.01
323.15 K, x1 = 0.0252	–	1089.6	–
323.15 K, x1 = 0.0521	–	1090.2	–
323.15 K, x1 = 0.0754	–	1091.3	–
323.15 K, x1 = 0.11	977.62	1092.3	0.83
323.15 K, x1 = 0.2089	1066.34	1101.2	1.37
323.15 K, x1 = 0.2993	1132.21	1109.9	2
323.15 K, x1 = 0.393	1189.38	1118.7	2.93
323.15 K, x1 = 0.4847	1236.98	1127.9	4.14
323.15 K, x1 = 0.5739	1276.92	1136	5.48
323.15 K, x1 = 0.687	1320.8	1147.5	8.24
323.15 K, x1 = 0.7791	1352.11	1155.7	10.74
323.15 K, x1 = 0.9056	1389.18	1166.3	15.82
323.15 K, x1 = 1	1412.86	1171.3	20.32
